ChEMBL document CHEMBL5500371, “Arginine and tryptophan-rich dendritic antimicrobial peptides that disrupt membranes for bacterial infection in vivo” (Eur J Med Chem, 2024)
≈ marks a conversion by molar mass, not a printed value. Calls of active or inactive are those of the source. The calls are words filed in the database; no cut-off is given here. Where a SMILES comes first, the peptide text is derived from it. Side-chain parts run from the residue outwards.

What was measured:
Staphylococcus aureus = test: Antibacterial activity against Staphylococcus aureus ATCC 25923 assessed as inhibition of bacterial growth incubated for 20 hrs by broth microdilution method; type: functional
Bacillus subtilis = test: Antibacterial activity against Bacillus subtilis ATCC 23857 assessed as inhibition of bacterial growth incubated for 20 hrs by broth microdilution method; type: functional
Acinetobacter baumannii = test: Antibacterial activity against Acinetobacter baumannii ATCC 19606 assessed as inhibition of bacterial growth incubated for 20 hrs by broth microdilution method; type: functional
Klebsiella pneumoniae = test: Antibacterial activity against Klebsiella pneumoniae ATCC 700603 assessed as inhibition of bacterial growth incubated for 20 hrs by broth microdilution method; type: functional
Escherichia coli [1] = test: Antibacterial activity against Escherichia coli ATCC 25922 assessed as inhibition of bacterial growth incubated for 20 hrs by broth microdilution method; type: functional
Pseudomonas aeruginosa = test: Antibacterial activity against Pseudomonas aeruginosa ATCC 27853 assessed as inhibition of bacterial growth incubated for 20 hrs by broth microdilution method; type: functional
Escherichia coli [2] = test: Resistant development in Escherichia coli assessed as increase in MIC at sub-MIC measured after 20 passages; type: functional, organism-based
Erythrocyte = test: Hemolytic activity in mouse erythrocytes assessed as 10% hemolysis incubated for 1 hr by absorbance based analysis; type: toxicity, cell-based
[3] = Cytotoxicity against HEK293T cells assessed as cell death measured after 1 hr by resazurin dye based analysis; type: toxicity, HEK-293T; conditions: human, HEK293T cells

| Molecule | MIC (Staphylococcus aureus) | MIC (Bacillus subtilis) | MIC (Acinetobacter baumannii) | MIC (Klebsiella pneumoniae) | MIC (Escherichia coli [1]) | MIC (Pseudomonas aeruginosa) | Activity (Escherichia coli [2]) | MHC10 (Erythrocyte) | CC50 at 1 h [3] |
| --- | --- | --- | --- | --- | --- | --- | --- | --- | --- |
| CO[C@H]1/C=C/O[C@@]2(C)Oc3c(C)c(O)c4c(O)c(c(/C=N/N5CCN(C)CC5)c(O)c4c3C2=O)NC(=O)/C(C)=C\C=C\[C@H](C)[C@H](O)[C@@H](C)[C@@H](O)[C@@H](C)[C@H](OC(C)=O)[C@@H]1C [RIFAMPIN] | < 1 µM | < 1 µM | < 1 µM | 32 µM (≈ 26.3 µg/mL) | 4 µM (≈ 3.29 µg/mL) | 32 µM (≈ 26.3 µg/mL) | Active | – | – |
| N=C(N)NCCC[C@H](NC(=O)[C@H](CCCNC(=N)N)NC(=O)[C@@H](N)CCCNC(=N)N)C(=O)NCCCC[C@H](NC(=O)[C@H](CCCNC(=N)N)NC(=O)[C@H](CCCNC(=N)N)NC(=O)[C@@H](N)CCCNC(=N)N)C(=O)N[C@@H](Cc1c[nH]c2ccccc12)C(=O)N[C@@H](Cc1c[nH]c2ccccc12)C(=O)N[C@@H](Cc1c[nH]c2ccccc12)C(=O)N[C@@H](Cc1c[nH]c2ccccc12)C(=O)N[C@@H](Cc1c[nH]c2ccccc12)C(=O)N[C@@H](Cc1c[nH]c2ccccc12)C(=O)N[C@@H](Cc1c[nH]c2ccccc12)C(N)=O (H-RRRK([Arg-Arg-Arg])WWWWWWW-NH2) | 32 µM (≈ 76.3 µg/mL) | 16 µM (≈ 38.2 µg/mL) | 16 µM (≈ 38.2 µg/mL) | 64 µM (≈ 153 µg/mL) | 64 µM (≈ 153 µg/mL) | 16 µM (≈ 38.2 µg/mL) | – | 12.98 µM | 53.5 µM |
| H-RRRRKWWWWW-NH2 | 8 µM | 4 µM | 32 µM | 16 µM | 8 µM | 32 µM | – | 45.69 µM | 63.6 µM |
| N=C(N)NCCC[C@H](NC(=O)[C@H](CCCNC(=N)N)NC(=O)[C@H](CCCNC(=N)N)NC(=O)[C@H](CCCNC(=N)N)NC(=O)[C@H](CCCNC(=N)N)NC(=O)[C@H](CCCNC(=N)N)NC(=O)[C@H](CCCNC(=N)N)NC(=O)[C@H](CCCCNC(=O)[C@H](Cc1c[nH]c2ccccc12)NC(=O)[C@H](Cc1c[nH]c2ccccc12)NC(=O)[C@@H](N)Cc1c[nH]c2ccccc12)NC(=O)[C@H](Cc1c[nH]c2ccccc12)NC(=O)[C@H](Cc1c[nH]c2ccccc12)NC(=O)[C@@H](N)Cc1c[nH]c2ccccc12)C(N)=O | 16 µM (≈ 37.7 µg/mL) | 16 µM (≈ 37.7 µg/mL) | 32 µM (≈ 75.4 µg/mL) | 64 µM (≈ 151 µg/mL) | 32 µM (≈ 75.4 µg/mL) | 16 µM (≈ 37.7 µg/mL) | – | 17.53 µM | 41.9 µM |
| H-WWWWWWKRRRRR-NH2 | 8 µM | 8 µM | 16 µM | 32 µM | 16 µM | 16 µM | – | 29.45 µM | 44.9 µM |
| N=C(N)NCCC[C@H](NC(=O)[C@H](CCCNC(=N)N)NC(=O)[C@H](CCCNC(=N)N)NC(=O)[C@H](CCCCNC(=O)[C@@H](N)Cc1c[nH]c2ccccc12)NC(=O)[C@@H](N)Cc1c[nH]c2ccccc12)C(N)=O (H-WK(Trp)RRR-NH2) | > 128 µM | > 128 µM | > 128 µM | > 128 µM | > 128 µM | > 128 µM | – | > 256 µM | > 128 µM |

More lines, main results first:

| MIC (Staphylococcus aureus) | MIC (Bacillus subtilis) | MIC (Acinetobacter baumannii) | MIC (Klebsiella pneumoniae) | MIC (Escherichia coli [1]) | MIC (Pseudomonas aeruginosa) | Molecule | Activity (Escherichia coli [2]) | MHC10 (Erythrocyte) | CC50 at 1 h [3] |
| --- | --- | --- | --- | --- | --- | --- | --- | --- | --- |
| 8 µM | 8 µM | 32 µM | 64 µM | 32 µM | 16 µM | H-WWWWKRRR-NH2 | – | > 256 µM | > 128 µM |
| 8 µM (≈ 16.3 µg/mL) | 8 µM (≈ 16.3 µg/mL) | 32 µM (≈ 65.4 µg/mL) | 32 µM (≈ 65.4 µg/mL) | 16 µM (≈ 32.7 µg/mL) | 32 µM (≈ 65.4 µg/mL) | N=C(N)NCCC[C@H](NC(=O)[C@H](CCCNC(=N)N)NC(=O)[C@H](CCCNC(=N)N)NC(=O)[C@H](CCCNC(=N)N)NC(=O)[C@H](CCCNC(=N)N)NC(=O)[C@H](CCCCNC(=O)[C@H](Cc1c[nH]c2ccccc12)NC(=O)[C@H](Cc1c[nH]c2ccccc12)NC(=O)[C@@H](N)Cc1c[nH]c2ccccc12)NC(=O)[C@H](Cc1c[nH]c2ccccc12)NC(=O)[C@H](Cc1c[nH]c2ccccc12)NC(=O)[C@@H](N)Cc1c[nH]c2ccccc12)C(N)=O (H-WWWK([Trp-Trp-Trp])RRRRR-NH2) | – | 22.73 µM | 48.2 µM |
| > 128 µM | 128 µM | > 128 µM | > 128 µM | > 128 µM | > 128 µM | H-WWKRR-NH2 | – | > 256 µM | > 128 µM |
| 16 µM | 8 µM | 32 µM | 32 µM | 16 µM | 32 µM | H-RRRRRRKWWWWW-NH2 | – | 42.8 µM | 55.1 µM |
| 32 µM | 8 µM | 16 µM | 32 µM | 16 µM | 64 µM | H-RRRRRRKWWWWWW-NH2 | – | 24.89 µM | 51.5 µM |
| 8 µM | 8 µM | 128 µM | 64 µM | 64 µM | 16 µM | H-RRRRKWWW-NH2 | – | > 256 µM | > 128 µM |
| > 128 µM | > 128 µM | > 128 µM | > 128 µM | > 128 µM | > 128 µM | N=C(N)NCCC[C@H](NC(=O)[C@@H](N)CCCNC(=N)N)C(=O)N[C@@H](CCCCN)C(=O)N[C@@H](Cc1c[nH]c2ccccc12)C(N)=O (H-RRKW-NH2) | – | > 256 µM | > 128 µM |
